Measured values taken from the NIST ThermoML archive (doi:10.1016/j.jct.2014.07.018).
Numbers after ± are expanded uncertainties.

Assay: molar heat capacity at constant pressure
Details: 101.33 kPa, Vacuum adiabatic calorimetry

CCCCn1cc[n+](C)c1.[I-] [1-butyl-3-methylimidazolium iodide]
molar heat capacity at constant pressure [J/K/mol]
Details	Crystal	Glass
79.03 K	–	108.5 ± 0.5
80 K	101 ± 0.4	109.4 ± 0.4
80.72 K	–	110.2 ± 0.5
80.99 K	102 ± 0.4	–
81.32 K	102.2 ± 0.4	–
81.39 K	–	110.6 ± 0.5
82.53 K	–	111.7 ± 0.5
82.87 K	103.5 ± 0.5	–
83.68 K	104.1 ± 0.5	–
83.75 K	–	112.7 ± 0.5
84.35 K	–	113.3 ± 0.5
84.75 K	105 ± 0.5	–
86.18 K	–	114.8 ± 0.5
86.65 K	106.5 ± 0.5	–
88.03 K	–	116.3 ± 0.5
88.56 K	108 ± 0.5	–
89.88 K	–	117.8 ± 0.5
90 K	109.2 ± 0.5	117.9 ± 0.6
90.48 K	109.5 ± 0.5	–
91.74 K	–	119.3 ± 0.5
92.41 K	110.9 ± 0.5	–
93.62 K	–	120.8 ± 0.5
94.34 K	112.5 ± 0.5	–
95.5 K	–	122.3 ± 0.5
96.29 K	113.9 ± 0.5	–
97.39 K	–	123.7 ± 0.5
98.25 K	115.3 ± 0.5	–
99.29 K	–	125.2 ± 0.6
100 K	116.6 ± 0.6	125.7 ± 0.6
100.21 K	116.7 ± 0.5	–
101.2 K	–	126.6 ± 0.6
102.18 K	118.2 ± 0.5	–
103.12 K	–	128 ± 0.6
104.16 K	119.5 ± 0.5	–
105.04 K	–	129.4 ± 0.6
106.14 K	120.9 ± 0.5	–
106.97 K	–	130.8 ± 0.6
107.31 K	121.7 ± 0.5	–
108.13 K	122.3 ± 0.5	–
108.91 K	–	132.2 ± 0.6
109.45 K	123.1 ± 0.5	–
110 K	123.5 ± 0.6	132.9 ± 0.6
110.13 K	123.6 ± 0.5	–
110.85 K	–	133.5 ± 0.6
111.45 K	124.4 ± 0.6	–
112.13 K	124.9 ± 0.6	–
112.8 K	–	134.9 ± 0.6
113.46 K	125.7 ± 0.6	–
114.14 K	126.3 ± 0.6	–
114.75 K	–	136.2 ± 0.6
115.47 K	127.1 ± 0.6	–
116.16 K	127.5 ± 0.6	–
116.71 K	–	137.6 ± 0.6
117.49 K	128.4 ± 0.6	–
118.17 K	128.8 ± 0.6	–
118.68 K	–	138.9 ± 0.6
119.51 K	129.7 ± 0.6	–
120 K	130 ± 0.6	139.8 ± 0.6
120.2 K	130.1 ± 0.6	–
120.64 K	–	140.2 ± 0.6
121.54 K	130.9 ± 0.6	–
122.22 K	131.4 ± 0.6	–
122.62 K	–	141.5 ± 0.6
123.57 K	132.2 ± 0.6	–
124.25 K	132.7 ± 0.6	–
124.59 K	–	142.8 ± 0.6
125.6 K	133.5 ± 0.6	–
126.29 K	133.9 ± 0.6	–
126.57 K	–	144.1 ± 0.6
127.64 K	134.7 ± 0.6	–
128.33 K	135.1 ± 0.6	–
128.55 K	–	145.4 ± 0.6
129.68 K	135.9 ± 0.6	–
130 K	136.1 ± 0.6	146.4 ± 0.7
130.37 K	136.4 ± 0.6	–
130.54 K	–	146.7 ± 0.6
131.72 K	137.2 ± 0.6	–
132.41 K	137.6 ± 0.6	–
132.53 K	–	148 ± 0.6
133.76 K	138.4 ± 0.6	–
134.46 K	138.8 ± 0.6	–
134.52 K	–	149.3 ± 0.6
135.81 K	139.6 ± 0.6	–
136.51 K	140.1 ± 0.6	150.6 ± 0.7
137.87 K	140.8 ± 0.6	–
138.51 K	–	151.8 ± 0.7
138.56 K	141.3 ± 0.6	–
139.92 K	142.1 ± 0.6	–
140 K	142.1 ± 0.6	152.8 ± 0.7
140.51 K	–	153.1 ± 0.7
140.62 K	142.5 ± 0.6	–
141.98 K	143.3 ± 0.6	–
142.51 K	–	154.4 ± 0.7
142.68 K	143.7 ± 0.6	–
144.04 K	144.5 ± 0.6	–
144.51 K	–	155.7 ± 0.7
144.74 K	144.9 ± 0.6	–
146.1 K	145.7 ± 0.6	–
146.51 K	–	157 ± 0.7
146.8 K	146.1 ± 0.6	–
148.16 K	146.9 ± 0.6	–
148.52 K	–	158.3 ± 0.7
148.86 K	147.3 ± 0.6	–
150 K	147.9 ± 0.7	159.3 ± 0.7
150.22 K	148.1 ± 0.6	–
150.52 K	–	159.6 ± 0.7
150.92 K	148.5 ± 0.6	–
152.28 K	149.3 ± 0.6	–
152.53 K	–	160.9 ± 0.7
152.98 K	149.7 ± 0.7	–
154.35 K	150.5 ± 0.7	–
154.54 K	–	162.2 ± 0.7
155.05 K	150.8 ± 0.7	–
156.41 K	151.6 ± 0.7	–
156.54 K	–	163.5 ± 0.7
157.11 K	152.1 ± 0.7	–
158.48 K	152.8 ± 0.7	–
158.55 K	–	164.8 ± 0.7
159.18 K	153.2 ± 0.7	–
160 K	153.7 ± 0.7	165.7 ± 0.7
160.54 K	154 ± 0.7	–
160.56 K	–	166.1 ± 0.7
161.24 K	154.4 ± 0.7	–
162.57 K	–	167.4 ± 0.7
162.61 K	155.2 ± 0.7	–
163.31 K	155.6 ± 0.7	–
164.58 K	–	168.7 ± 0.7
164.68 K	156.4 ± 0.7	–
165.38 K	156.8 ± 0.7	–
166.59 K	–	170 ± 0.7
166.74 K	157.5 ± 0.7	–
167.44 K	158 ± 0.7	–
168.59 K	–	171.4 ± 0.7
